Consider 1 compound from patent publication EP4670735A1, “PRODRUG NANOPARTICLE FOR TUMOR-TARGETED ULTRASOUND-[…] THERAPY” (Schleuning, Christian, priority 2024, dated 2025).

The subject of series [1] is human breast cancer (MCF-7) cells. The series is described as follows: Cytotoxicity (MTT) in the dark or upon exposure to ultrasound radiation. It counts as cell-based. The note with it: 4 h incubation, then 44 h, concentrations correspond to the platinum complex. On the procedure:
(§1) 6 × 10^3 cells were seeded onto 96-well plates and allowed to adhere overnight. The cells were treated with increasing concentrations of the compound which was diluted in cell media to a total volume of 200 µL. The cells were incubated with the compound for 4 h and after this time the medium refreshed. The cells for the dark group were grown for an additional 44 h at 37 °C. The cells for the ultrasound group were exposed to ultrasound radiation (1.5 W/cm^2, 2 min) with an Intelect Mobile 2 Ultrasound Emitter (DJO Global). The cells for the ultrasound group were grown for an additional 44 h at 37 °C. After this incubation time, the culture medium was substituted with PBS buffer containing 3-(4,5-dimethylthiazol-2-yl)-2,5-diphenyltetrazolium bromide (MTT) with a final concentration of 12 µM. The cells were incubated for 2 h at 37 °C and 10 % CO2 After this time, the DPBS-MTT mixture was removed and the wells filled with 200 µL DMSO. Using a 620 nm reference wavelength, the absorption of the formazan was measured at 550 nm with an Infinite M Nano plus Microplate reader (Tecan).
(§2) In contrast, the nanoparticles induced a cytotoxic effect upon exposure to ultrasound radiation. Table 1 reflects the respective data, which are also visualized in Fig. 3. Table 1: Cytotoxicity (IC50 in µM) of oxaliplatin, NP-Pt-1 and NP-Pt-2 in the dark or upon exposure to ultrasound radiation in mouse colon carcinoma (CT-26) and human breast cancer (MCF-7) cells. The mentioned concentrations correspond to the platinum complex.

For series [2], the system named is mouse colon carcinoma (CT-26) cells. Described as above. The following applies: 4 h incubation, then 44 h, concentrations correspond to the platinum complex. The format is cell-based. On the procedure: as §1, §2

The term IC50 denotes the midpoint of a concentration-inhibition curve. Higher therefore signals weaker potency. As for `O=C1[O][Pt]2([NH][C@@H]3CCCC[C@H]3[NH]2)[O]C1=O` [Oxaliplatin], the IC50 in series [1] (MCF-7, dark, 2880 min) came out at 24.5 ± 4.6 µM; in series [1] (MCF-7, ultrasound (1.5 W/cm^2, 2 min)), 22.4 ± 4.8 µM; in series [2] (CT-26, dark, 2880 min), 20.4 ± 3.1 µM; in series [2] (CT-26, ultrasound (1.5 W/cm^2, 2 min)), 19.3 ± 3.4 µM.
